# Measured values taken from patent US20250099490A1, “25-HYDROXYVITAMIN D AS A FEED ADDITIVE FOR AQUATIC ANIMALS” (DSM IP Assets B.V., priority 2022, published 2025).
# Entries after “also recorded” stand apart in the source; their conditions may differ.
# Experiments:
# Type in all cases: in vivo
# [1] = Study 2: Atlantic salmon 90-day feeding trial, viscerosomatic index, carcass yield and visceral fat; conditions: Atlantic salmon, 100, 200 or 400 μg/kg 25-OH-D3 in feed, 90 days, relative to control
# Experimental: (§1) The second study evaluated dietary 25-hydroxyvitamin D3 (25-OH D3) compared to control basal diet fed fish.
# (§2) Fish with a mean starting weight of 23.4 g were fed diets based on the same standard composition representative of typical commercial salmonid feeds. Test diets contained no supplemented 25-OH-D3 or either 100, 200 or 400 μg/kg supplemented 25-OH-D3 (as fed basis). Hy·D (25-OH-D3) was supplemented on top of diets already containing cholecalciferol (D3) from both endogenous and supplemented sources. The measured levels of D3 in all experimental diets were in excess of established minimum dietary requirements for D3, (National Research Council (NRC), Nutrient Requirements of Fish and Shrimp. 2011, Washington, DC: The National Academies Press. 392.). In addition, the dietary level of D3 in all experimental diets met recommendations for optimal vitamin D3 in salmonid diets (Fish Nutrition. Fourth Edition 2021. Edited by Ronald W. Hardy and Sadasivam J. Kaushik. Academic Press, UK. 905 pp.), which stipulates a vitamin D3 supplementation of 2500-3500 international units (IU)/62.5-87.5 μg/kg). Diets were fed for 90 days with test fish reaching a mean final weight of 73.0 g. Twenty fish were housed in each tank and each treatment consisted of five replicate tanks.
# [2] = Study 1: rainbow trout 91-day feeding trial, vitamin D3 metabolites in plasma and muscle
# Experimental: (§3) The first study evaluated dietary 25-hydroxyvitamin D3 (25-OH D3) compared to control basal diet fed fish. Fish with a mean starting weight of 58 g were fed diets based on the same standard composition representative of typical commercial salmonid feeds.
# (§4) Test diets contained no supplemented 25-OH-D3 or either 80, 800 or 8000 μg/kg supplemented 25-OH-D3 (as fed basis). Hy·D (25-OH-D3) was supplemented on top of diets already containing cholecalciferol (D3) from both endogenous and supplemented sources. The measured levels of D3 in all experimental diets were in excess of established minimum dietary requirements for D3, (National Research Council (NRC), Nutrient Requirements of Fish and Shrimp. 2011, Washington, DC: The National Academies Press. 392.). In addition, the dietary level of D3 in all experimental diets met recommendations for optimal vitamin D3 in salmonid diets (Fish Nutrition. Fourth Edition 2021. Edited by Ronald W. Hardy and Sadasivam J. Kaushik. Academic Press, UK. 905 pp.), which stipulates a vitamin D3 supplementation of 2500-3500 international units (IU)/62.5-87.5 μg/kg). Diets were fed for 91 days following which, test fish reached a mean final weight of 332 g. Forty fish were housed in each tank and each treatment consisted of four replicate tanks.
# [3] = Study 2: Atlantic salmon 90-day feeding trial, final body weight, FCR and PER; conditions: Atlantic salmon, 100, 200 or 400 μg/kg 25-OH-D3 in feed, 90 days, relative to control
# Experimental: as §1, §2
# [4] = Study 1: rainbow trout 91-day feeding trial, growth performance (SGR) and feed conversion (FCR); conditions: rainbow trout, 80, 800 or 8000 μg/kg 25-OH-D3 in feed, 91 days
# Experimental: as §3, §4
# [5] = Rainbow trout 20-week feeding from first-feeding, feed efficiency and whole body composition; conditions: 80 μg/Kg 25-OH-D3 plus D3, 20 weeks
# Experimental: The first study evaluated standard dietary levels of supplemented vitamin D3 alone or in combination with 80 μg/Kg 25-hydroxy vitamin D3dietary 25-hydroxyvitamin D3 (25-OH D3) in rainbow trout fed for 20 weeks from first-feeding.
# Two commercial-like experimental diets were formulated by DSM Nutritional Products France and produced by SPAROS (Portugal). The basal diet was supplemented with either vitamin D3 only (VitD3 diet) or D3 in combination with 80 μg/Kg 25-hydroxy vitamin D3 (25-OH-D3 diet) (Table 1).
# The parameters for growth performance, including feed efficiency (FE), were measured every 3 weeks and calculated as follow: Feed efficiency (FE)=(the mass for dead fish+final wet body mass-initial wet body mass)/dry feed intake. […].
# Data are presented as means±standard deviation (SD). For growth parameters, the plasma and the qPCR results, data were analyzed by t-Student comparison of two means. Normality was assessed using the Shaprio-Wilk test, while homoscedasticity was determined using Levene's test. Data was analysed using the statistical R software/R Commander package. For all statistical analyses, the level of significance was set at P<0.05. […] Differentially expressed genes (DEG) are determined and hierarchical clustering is illustrated by a heatmap. […]
# [6] = rainbow trout, 80, 800 or 8000 μg/kg in standard trout feed
smiles,measurement,setting,value
"C=C1CC[C@H](O)C/C1=C/C=C1\CCC[C@]2(C)[C@@H]([C@H](C)CCCC(C)(C)O)CC[C@@H]12 [25-OH-D3, 25-hydroxyvitamin D3]",carcass yield (percentage carcass),[1],improved carcass yields; also recorded: increased
same,percentage fat in the viscera,[1],reduced percentage fat being deposited in the viscera
same,viscerosomatic index (VSI),[1],reduced VSI; also recorded: decreased VSI
same,"plasma levels of 1,25-OH-D3 (active D3 metabolite)","[2]; rainbow trout, 80, 800 or 8000 μg/kg dietary 25-OH-D3 from Hy·D, D3-replete diets",increased plasma levels
same,blood plasma 25-OH-D3 in response to increasing dietary 25-OH-D3,[2]; [6],increase in a linear relationship
same,muscle 25-OH-D3 in response to increasing dietary 25-OH-D3,[2]; [6],increase in a linear relationship
same,bioavailability to fish,"[2]; rainbow trout, from changes in plasma and muscle vitamin D3 metabolites",highly bioavailable
same,feed conversion (FCR),[3],improved
same,final body weight,[3],improved; also recorded: increased growth
same,protein efficiency ratio (PER),[3],improved
same,specific growth rate (SGR) relative to the control,[4]; apparent from 31 days onwards,rapidly improved; also recorded: increased growth rate relative to the control
same,feed conversion ratio (FCR) relative to the control,[4]; from 15 days onwards,rapidly improved
same,feed efficiency (FE),"[5]; rainbow trout fry, vs 1.19 for comparison diet, p=0.0002",1.29
same,whole body protein,"[5]; rainbow trout, 47.38 vs. 51.15, p=0.006",51.15
